Measured values: the supplement of paper PMC5908809

Legend:
[1] = test system: normal NK cells expanded with K562-aAPC; assay: percent inhibition of viability; higher = more inhibition; settings: 72 h, IL-2 2.5 ng/mL
Description: (§1)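 Drug sensitivity and resistance testing on K562-aAPC-expanded normal NK cells: 5 concentrations (10-fold steps over a 10,000-fold range), 72 h at 37 °C, viability by CellTiter-Glo normalised to DMSO and benzethonium chloride controls; DSS from the fitted curve.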

[2] = test system: normal primary NK cells, pool 2 (3 donors) (IL-2 2.5 ng/mL); assay: as above; settings: 72 h
YT (IL-2 2.5 ng/mL) [3] = assay: as above; settings: 72 h
SNK-6 (IL-2 2.5 ng/mL) [4] = assay: as above; settings: 72 h
IMC-1 (IL-2 20 ng/mL) [5] = assay: as above; settings: 72 h
DERL-7 (IL-2 2.5 ng/mL) [6] = assay: as above; settings: 72 h
KAI3 (IL-2 2.5 ng/mL) [7] = assay: as above; settings: 72 h
[8] = test system: normal primary NK cells, pool 1 (3 donors), resting (IL-2 0 ng/mL); assay: as above; settings: 72 h
[9] = test system: normal primary NK cells, pool 1 (3 donors) (IL-2 2.5 ng/mL); assay: as above; settings: 72 h
[10] = test system: normal primary NK cells, pool 3 (3 donors) (IL-2 2.5 ng/mL); assay: as above; settings: 72 h
NKL (IL-2 2.5 ng/mL) [11] = assay: as above; settings: 72 h
KHYG-1 (IL-2 2.5 ng/mL) [12] = assay: as above; settings: 72 h
NK-YS (IL-2 2.5 ng/mL) [13] = assay: as above; settings: 72 h
NK-92 (IL-2 2.5 ng/mL) [14] = assay: as above; settings: 72 h
[15] = test system: normal primary NK cells, pool 2 (3 donors) (IL-2 2.5 ng/mL); assay: drug sensitivity score (DSS) (DSS units); higher = more sensitive; extreme values may be limits of the assay; settings: 72 h
YT (IL-2 2.5 ng/mL) [16] = assay: as above; settings: 72 h
SNK-6 (IL-2 2.5 ng/mL) [17] = assay: as above; settings: 72 h
IMC-1 (IL-2 20 ng/mL) [18] = assay: as above; settings: 72 h
DERL-7 (IL-2 2.5 ng/mL) [19] = assay: as above; settings: 72 h
KAI3 (IL-2 2.5 ng/mL) [20] = assay: as above; settings: 72 h
[21] = test system: normal primary NK cells, pool 1 (3 donors), resting (IL-2 0 ng/mL); assay: as above; settings: 72 h
[22] = test system: normal primary NK cells, pool 1 (3 donors) (IL-2 2.5 ng/mL); assay: as above; settings: 72 h
[23] = test system: normal primary NK cells, pool 3 (3 donors) (IL-2 2.5 ng/mL); assay: as above; settings: 72 h
NKL (IL-2 2.5 ng/mL) [24] = assay: as above; settings: 72 h
KHYG-1 (IL-2 2.5 ng/mL) [25] = assay: as above; settings: 72 h
NK-YS (IL-2 2.5 ng/mL) [26] = assay: as above; settings: 72 h
NK-92 (IL-2 2.5 ng/mL) [27] = assay: as above; settings: 72 h
[28] = test system: normal NK cells expanded with K562-aAPC; assay: as above; settings: 72 h; IL-2 2.5 ng/mL
Description: as §1

CC[C@H](C)C(=O)O[C@H]1C[C@@H](C)C=C2C=C[C@H](C)[C@H](CC[C@@H]3C[C@@H](O)CC(=O)O3)[C@H]21 [Lovastatin] (max concentration tested 10000 nM)
percent inhibition of viability [%]
Settings	1 nM	10 nM	100 nM	1000 nM	10000 nM
DERL-7 (IL-2 2.5 ng/mL) [6]	2.67	-1.74	3.23	-2.63	7.15
IMC-1 (IL-2 20 ng/mL) [5]	0.36	-4.93	-3.87	-8.19	5.39
KAI3 (IL-2 2.5 ng/mL) [7]	0.53	3.49	-3.97	0.77	14
KHYG-1 (IL-2 2.5 ng/mL) [12]	0.32	-1.28	-1.4	5.79	9.85
NK-92 (IL-2 2.5 ng/mL) [14]	-12	-4.31	2.92	-2.72	4.38
NK-YS (IL-2 2.5 ng/mL) [13]	-0.66	-1.57	-0.61	9.14	57.5
NKL (IL-2 2.5 ng/mL) [11]	-8.92	-7.04	-16.3	-3.47	50.5
SNK-6 (IL-2 2.5 ng/mL) [4]	9.2	3.13	18.8	3.99	-5.4
YT (IL-2 2.5 ng/mL) [3]	1.08	0.01	-2.08	1.47	15
[1]	0.56	-5.1	-9.52	-6.29	-8.93
[2]	-9.06	-2.92	-2.71	-5.88	-6.36
[8]	-2.63	-14.8	-15	10.9	16
[9]	-9.05	-11.9	-5.92	4.69	0.82
[10]	-7.92	-10.5	-6.75	-10.6	-16

Settings	drug sensitivity score
DERL-7 (IL-2 2.5 ng/mL) [19]	0
IMC-1 (IL-2 20 ng/mL) [18]	0
KAI3 (IL-2 2.5 ng/mL) [20]	0.22
KHYG-1 (IL-2 2.5 ng/mL) [25]	0
NK-92 (IL-2 2.5 ng/mL) [27]	0
NK-YS (IL-2 2.5 ng/mL) [26]	4.64
NKL (IL-2 2.5 ng/mL) [24]	2.39
SNK-6 (IL-2 2.5 ng/mL) [17]	0
YT (IL-2 2.5 ng/mL) [16]	0.36
[15]	0
[21]	1.12
[22]	0
[23]	0
[28]	0

Cn1ncnc1[C@H]1c2n[nH]c(=O)c3cc(F)cc(c23)N[C@@H]1c1ccc(F)cc1 [Talazoparib] (max concentration tested 1000 nM)
percent inhibition of viability [%]
Settings	0.1 nM	1 nM	10 nM	100 nM	1000 nM
DERL-7 (IL-2 2.5 ng/mL) [6]	4.61	7.22	13.7	21.3	37.8
IMC-1 (IL-2 20 ng/mL) [5]	-4.58	-1.47	11.2	18.6	78.1
KAI3 (IL-2 2.5 ng/mL) [7]	3.2	10.3	25.1	48.3	74.7
KHYG-1 (IL-2 2.5 ng/mL) [12]	0.2	-0.57	14.9	31.4	71.2
NK-92 (IL-2 2.5 ng/mL) [14]	15.4	8.78	27.8	36.7	87.8
NK-YS (IL-2 2.5 ng/mL) [13]	-2.27	-0.36	27.9	81.3	96.2
NKL (IL-2 2.5 ng/mL) [11]	-2.21	28.1	72	84.1	88.6
SNK-6 (IL-2 2.5 ng/mL) [4]	1.83	6.37	16.4	33.1	90.8
YT (IL-2 2.5 ng/mL) [3]	-2.25	0.5	0.86	-5.82	-1.36
[1]	2.07	3.56	9.75	17.4	45.1
[2]	-10.4	6.14	1.12	1.32	21.5
[8]	10.7	-5.43	-1.52	-18.5	4.03
[9]	7.55	-5.65	4.49	-2.17	-1.39
[10]	-7.78	-0.35	2.46	5.72	21.3

Settings	drug sensitivity score
DERL-7 (IL-2 2.5 ng/mL) [19]	5.22
IMC-1 (IL-2 20 ng/mL) [18]	7.06
KAI3 (IL-2 2.5 ng/mL) [20]	12.7
KHYG-1 (IL-2 2.5 ng/mL) [25]	7.93
NK-92 (IL-2 2.5 ng/mL) [27]	12
NK-YS (IL-2 2.5 ng/mL) [26]	18.4
NKL (IL-2 2.5 ng/mL) [24]	27.7
SNK-6 (IL-2 2.5 ng/mL) [17]	8.8
YT (IL-2 2.5 ng/mL) [16]	0
[15]	0.86
[21]	0
[22]	0
[23]	1.31
[28]	4.21
